Earlier results on 7 molecules are cited in patent publication US10251778B2, “Therapeutics dispensing device and methods of making same” (Baylor College of Medicine, priority 2012, dated 2019).

SMILES strings stand for the structures. Structures can show the parent of a compound that is named as a salt.

For series [1] the following is noted: Acrylate Polymer Nanosuspensions.
Series [2] has as its system human cytomegalovirus (HCMV). The following applies: Albumin Nanoparticles.
Assay in series [3]: not given
This is another data set of the same source.

For series [4] the following is noted: in vitro.
Setting [5] is: Poly(butyl)-cyano acrylate Nanopartilces.

With `CC(=O)Nc1nnc(S(N)(=O)=O)s1` [Acetazolamide], the “Result (IOP)” value (Liposomes) is given as “Produced a marked decrease in IOP”.

For `CC(C(=O)O)c1ccc(-c2ccccc2)c(F)c1` (stereo not drawn) [Flurbiprofen], the “Result (drug levels in aqueous humour)” value in series [1] is on record as “Increased drug levels in aqueous humour”.

On to `Nc1nc2c(ncn2COC(CO)CO)c(=O)[nH]1` [GCV], for which, in series [2], the “Result (antiviral activity)” value is “Increased antiviral aciivity against human”.

Turning to `CC[C@@H]1C(=O)OC[C@@H]1Cc1cncn1C` [Pilocarpine HCl], in series [3] (Liposomes), the “Result (response and ocular bioavailability)” value was “Increased mitotic response and ocular”.

Turning to `CC[C@@H]1C(=O)OC[C@@H]1Cc1cncn1C` [Pilocarpine nitrate], the “Result (miotic activity)” value in series [3] (Dendrimers) is recorded as “Prolonged miotic activity”.

Take `CC[C@@H]1C(=O)OC[C@@H]1Cc1cncn1C` [Pilocarpine]: in series [3] (setting [5]), the “Result (response)” value was “Enhanced mitotic response and decrease”. Moreover, where the note is “Microemulsions”, the “Decreased IOP” value is listed as “Decreased IOP by 25%”. Also, the “decrease in IOP” value under setting [5] was “in IOP by 22%”.

For the molecule `CC[C@@H]1C(=O)OC[C@@H]1Cc1cncn1C` [pilocarpine base, pilocarpine], the “transcorneal penetration relative to the ionized form” value in series [4] is given as 2-3 times.
